Measurements published in publication PMC6003606 (Chemical Science, 2016).
Like-named read-outs stand apart in the source and are kept apart here.

Key:
A498 = assay: Cytotoxicity, 72 h exposure, kidney carcinoma; type: cell-based, human; details: A498, 72 h exposure
MCF-7 = assay: Cytotoxicity, 72 h exposure, breast carcinoma; type: cell-based, human; details: MCF-7, 72 h exposure
BxPC3 = assay: Cytotoxicity, 72 h exposure, pancreatic carcinoma; type: cell-based, human; details: BxPC3, 72 h exposure
A375 = assay: Cytotoxicity, 72 h exposure, melanoma; type: cell-based, human; details: A375, 72 h exposure
A549 = assay: Cytotoxicity, 72 h exposure, lung carcinoma; type: cell-based, human; details: A549, 72 h exposure
PC3 = assay: Cytotoxicity, 72 h exposure, prostate carcinoma; type: cell-based, human; details: PC3, 72 h exposure
HCT-15 = assay: Cytotoxicity, 72 h exposure, colon carcinoma; type: cell-based, human; details: HCT-15, 72 h exposure
[1] = system: cancer cell lines (panel); assay: Cytotoxicity averaged or compared over the cancer cell line panel; type: cell-based, human; details: for IC50: read-out: average IC50
[2] = system: HDAC activity in MCF-7 cells; details: free ligand; reported values, no reference given; cited from earlier work
A2780 = assay: Cytotoxicity, 72 h exposure, cisplatin-sensitive ovarian cancer cells; type: cell-based, human; details: A2780, 72 h exposure
A2780cisR = assay: Cytotoxicity, 72 h exposure, cisplatin-resistant ovarian cancer cells; type: cell-based, human
[3] = average over five cancer cell lines
[4] = average over the seven cancer cell lines

Compound	IC50 (A498)	IC50 (MCF-7)	IC50 (BxPC3)	IC50 (A375)	IC50 (A549)	IC50 (PC3)	IC50 (HCT-15)	IC50 [1, 3]	IC50 of extracellular ligand for cellular HDAC activity [2]	cytotoxic IC50 of uncoordinated HDAC inhibitor ligands ([1]; tested cancer cell lines)	IC50 (A2780)	IC50 (A2780cisR)	IC50 [1, 4]	IC50 ([1]; over the nine cell lines)
N.N.[Cl-].[Cl-].[OH-].[OH-].[Pt+4] [IX, ctc-[Pt(NH3)2(OH)2Cl2]]	22 ± 0.85 µM	11.5 ± 3.71 µM	6.23 ± 1.47 µM	1.93 ± 0.75 µM	22.5 ± 4.54 µM	2.98 ± 1.35 µM	15.3 ± 3.23 µM	7 µM						
CCCC(CCC)C(=O)O [VPA, valproate]									mM range	millimolar range				
N.N.[Cl][Pt][Cl] [cisplatin]	17.5 ± 1.21 µM	17.4 ± 0.2 µM	11.4 ± 1.14 µM	4.03 ± 0.95 µM	8.35 ± 0.87 µM	2.25 ± 0.82 µM	11.3 ± 1.06 µM				2.8 ± 0.2 µM	13.8 ± 0.2 µM	10.3 µM	9.9 µM
O=C1[O][Pt]2([NH][C@@H]3CCCC[C@H]3[NH]2)[O]C1=O [oxaliplatin]	7.94 ± 1.04 µM	3.36 ± 0.2 µM	4.15 ± 0.93 µM	6.3 ± 1.11 µM	1.46 ± 0.31 µM	5.24 ± 0.86 µM	1.15 ± 0.43 µM				0.52 ± 0.27 µM	4.2 ± 1.6 µM	4.2 µM	
[Pt(DACH)(OH)2(ox)]	24.4 ± 5.35 µM	19.9 ± 1.41 µM	14.3 ± 2.09 µM	6.85 ± 1.55 µM	26.1 ± 2.89 µM	5.85 ± 1.08 µM	18.9 ± 3.18 µM	13.2 µM						
